In patent publication US20130079309A1, “Method Of Treating Acute Lung Injury Using Sphingosine 1 Phosphate Analogs Or Sphingosine 1 Phosphate Receptor Agonists” (The Board of Trustees of the University of Illinois, priority 2010, published 2013):

Key:
HPAEC [1] = assay: Intracellular calcium by Fura-2; type: cell-based, human; settings: 1 μM
Procedure: To further explore the mechanistic differences in barrier regulation, intracellular calcium responses to the FTY720 analogs, S1P, and FTY720 were examined using Fura-2 (Harbeck et al., 2006, Sci STKE 2006: p16). HPAEC plated on 25-mm glass coverslips were loaded with 1 μM Fura-2/acetoxymethyl ester (Invitrogen, Carlsbad, Calif.) for 20 min at 37° C. in KRBH5 buffer (Krebs-Ringer-bicarbonate solution containing 119 mM NaCl, 4.7 mM KCl, 2.5 mM CaCl2, 1 mM MgCl2, 1 mM KH2PO4, 25 mM NaHCO3, mM HEPES-NaOH (pH 7.4), and 5 mM glucose). After replacement of the Fura-2 loading buffer with fresh KRBH5, coverslips were placed into the specimen stage of an inverted fluorescence microscope (Nikon TE-2000U). A Nikon Super Fluor 10× objective was used for these studies. Filters (340- and 380-nm excitation and 530-nm emission) were used for Fura-2 dual excitation ratio imaging. […] Fura-2 ratios were converted to [Ca^2+] using the equation: [Ca^2+]=(Kd′[(R−Rmin)/(Rmax−R)]×Sf/Sb) (Grynkiewicz et al., 1985, J Biol Chem 260: 3440-3450), where Kd′ is the dissociation constant for Fura-2 in the cytosol (225 nM) and Sf and Sb are the measured emission intensities at 380 nm for Ca^2+-free and Ca^2+-bound Fura-2, respectively. Data summaries for all Ca^2+ measurements are expressed as the means±S.E.

MLC = assay: Western blotting of HPAEC lysates for phospho-MLC; type: cell-based, human; settings: 5 min
Procedure: (§1) After treatment as outlined for individual experiments, confluent HPAEC were lysed for Western blotting with phospho-MLC, pan-MLC, phospho-ERK, or pan-ERK antibodies. […] Membranes were then immunoblotted with primary antibodies (1:500-1000, 4° C., overnight) followed by secondary antibodies conjugated to horseradish peroxidase (1:5000, room temperature, 30 min) and detected with enhanced chemiluminescence (Pierce ECL or SuperSignal West Dura; Pierce Biotechnology, Rockford, Ill.) on Biomax MR film (Carestream Health, Rochester, N.Y.).

[2] = test system: LPS-induced lung injury in C57BL/6 mice; assay: LPS-induced murine lung injury model; settings: 1S 0.1-5.0 mg/kg i.p. single dose 1 h after LPS 2.5 mg/kg i.t.; 18 h; FTY720 0.5 mg/kg, S1P 0.026 mg/kg
Procedure: For experiments performed in intact animals, male C57BL/6 mice (8-10 weeks) were anesthetized with intraperitoneal ketamine and acetylpromazine mixture according to the approved protocol. Escherichia coli LPS solution (2.5 mg/kg) or sterile saline was instilled intratracheally via a 20-gauge catheter. Simultaneously, mice received either FTY720 or analogs (in doses: 0.01, 0.1, 0.5, 1, and 5 mg/kg i.p.) or PBS as vehicle. The animals were allowed to recover for 18 h. BAL and lungs were collected and stored at −70° C. for evaluation of lung injury.
Pure BAL fluids prepared for protein measurement or myeloperoxidase activity (MPO) lung homogenates were used to test albumin concentration. The assay was performed in 96-well plastic plates (Nalge Nunc A/S, Roskilde, Denmark). Plates were coated with mouse albumin (Bethyl Lab, Montgomery, Tex.), washed, and blocked. Aliquots (100-μl) of the sample or standard and 100 μl of goat anti-mouse albumin antibody (horseradish peroxidase-conjugated) (1:50,000) were then added, followed by incubation at 37° C. for 1 h. Finally, the substrate 3,3′,5,5′-tetramethylbenzidine was added for 10 min, and the reaction stopped by adding 100 μl of 2 M H2SO4. The absorbance at 450 nm was read on a kinetic microplate reader (Molecular Devices).
Myeloperoxidase (MPO) was isolated and measured from snap-frozen right lungs as follows (see also Remick et al., 1990, Am J Pathol 136: 49-60). The right lung was homogenized in 1 ml of 50 mM potassium phosphate, pH 6.0, with 0.5% hexadecyltrimethylammonium bromide. The resulting homogenate was sonicated and then centrifuged at 12,000 g for 15 min. The supernatant was mixed 1:30 with assay buffer (100 mM potassium phosphate, pH 6.0, 0.005% H2O2, 0.168 mg/ml o-dianisidine hydrochloride), and absorbance read at 490 nm. MPO units were calculated as the change in absorbance with respect to time.
Peripheral blood was examined by the Missouri University Research Animal Diagnostic Laboratory (Columbia, Mo.) for determination of total blood cell counts and differentials in blood samples.
Values are shown as the mean±S.E. Data were analyzed using a standard Student's t test or one-way analysis of variance, groups were compared by Newman-Keuls test, and significance in all cases was defined at p<0.05.

S1P receptor 1 (S1PR1) [3] = target: T1, S1P receptor 1 (S1PR1) (Homo sapiens, UniProt P21453); assay: Ubiquitination of S1PR1 in HPAEC (immunoprecipitation, ubiquitin Ab); settings: 1 μM, 1 h
Source text: S1PR1 was immunoprecipitated by S1PR1Ab, and ubiquitination of S1PR1 was detected by ubiquitin Ab.

HPAEC [4] = assay: Transwell transendothelial permeability assay (FITC-dextran); type: cell-based, human; settings: 1 μM (3R, 3S 25 μM), 1 h before FITC-dextran, 2-h incubation
Procedure: As a complementary approach to further characterize the barrier-protective effects of these FTY720 analogs in vitro, the permeability of FITC-labeled dextran across the pulmonary EC monolayer was assayed in response to treatment by the FTY720 analogs. […] Data were normalized to unstimulated control. n=3 independent experiments per condition; *, p<0.01 versus unstimulated condition (see FIG. 26).

HPAEC [5] = settings: Camp et al., 2009; cited from earlier work
ERK = assay: Western blotting of HPAEC lysates for phospho-ERK; type: cell-based, human; settings: 5 min
Procedure: as §1

β-arrestin = settings: 1 μM (SEW2871 10 μM; (S)-FTY720-phosphonate 1, 10, 50 μM), 5 h
Procedure: After another 2 h-incubation with fluorescence substrate, the fluorescence intensity (blue and green channels) were detected and the blue/green emission ratio was used as the activation indicator.

HPAEC [6] = assay: Pharmacologic inhibitor effects on barrier enhancement (TER); settings: 1 μM agonist, 60 min
Procedure: Endothelial cells were grown to confluence in polycarbonate wells containing evaporated gold microelectrodes (surface area, 10^−3 cm^2) in series with a large gold counter electrode (1 cm^2) connected to a phase-sensitive lock-in amplifier. Current was applied across the electrodes by a 4,000-Hz AC voltage source with amplitude of 1 V in series with a 1 MΩ resistance to approximate a constant current source (˜1 μA). The in-phase and out-of-phase voltages between the electrodes were monitored in real time with the lock-in amplifier and subsequently converted to scalar measurements of transendothelial impedance, of which resistance was the primary focus. TER was monitored for 30 minutes to establish a baseline resistance (R0) which, for bovine pulmonary endothelium, was typically between 8 to 12×10^3Ω (wells with R0<7×10^3Ω were rejected). As cells adhere and spread out on the microelectrode, TER increases (maximal at confluence), whereas cell retraction, rounding, or loss of adhesion is reflected by a decrease in TER. These measurements provide a highly sensitive biophysical assay that indicates the state of cell shape and focal adhesion. Values from each microelectrode were pooled at discrete time points and plotted versus time as the mean±SE of the mean. TER values from each microelectrode were pooled as discrete time points and plotted versus time as the mean±S.E.M.
In this experiment, confluent HPAEC were plated on gold microelectrodes and then stimulated with 1 μM S1P, FTY720, 1R, 1S, 2R, or 2S after either a 2-h preincubation with 100 ng/ml PTX, 30-min preincubation with 200 μM genistein (Gen), or 2-h preincubation with 2 mM MβCD or their respective vehicle controls. Data were pooled from multiple TER experiments (4-10 independent experiments per condition) and expressed as percentage inhibition of maximal barrier enhancement at 60 min relative to agonist-only control.

HPAEC [7] = assay: Transendothelial electrical resistance (TER) of HPAEC; type: cell-based, human; settings: 10 μM, within 60 min
Procedure: Cells were grown at 37° C. in a 5% CO2 incubator, and passages 6 to 9 were used for experiments. Media were changed 1 day before experimentation.

S1P receptor 1 (S1PR1) [8] = target: T1, S1P receptor 1 (S1PR1); assay: S1PR1 protein expression in HPAEC by Western blot; type: cell-based; design: Cells were collected and S1PR1 expression level was detected by Western blot; endogenous in cells; host or cells: HPAEC (human pulmonary artery endothelial cells); settings: 1 μM (SEW2871 10 μM), 4 h
Source text: Cells were collected and S1PR1 expression level was detected by Western blot.

T1 sequence (P21453 whole entry): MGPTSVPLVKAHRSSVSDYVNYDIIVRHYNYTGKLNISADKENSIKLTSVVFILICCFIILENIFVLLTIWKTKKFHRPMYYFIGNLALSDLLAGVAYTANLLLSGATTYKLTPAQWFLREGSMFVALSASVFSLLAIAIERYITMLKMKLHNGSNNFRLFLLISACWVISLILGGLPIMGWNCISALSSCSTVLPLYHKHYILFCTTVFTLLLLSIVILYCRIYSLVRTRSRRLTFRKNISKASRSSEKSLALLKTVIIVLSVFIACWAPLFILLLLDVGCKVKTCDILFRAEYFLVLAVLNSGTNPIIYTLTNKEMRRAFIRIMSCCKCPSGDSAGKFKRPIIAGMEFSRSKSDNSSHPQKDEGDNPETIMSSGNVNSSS

CCCCCCCCCCCCC/C=C/[C@@H](O)[C@@H](N)COP(=O)(O)O [S1P, sphingosine 1 phosphate]
intracellular calcium [Ca2+]i (HPAEC [1]): produced a transient Ca^2+ spike | MLC phosphorylation (MLC): increased MLC and ERK phosphorylation | capillary leak as total BAL protein, relative to PBS control [2]: reduction in permeability by 1S was comparable to that achieved by S1P or FTY720 | ubiquitination of S1PR1 at 1 h (S1P receptor 1 (S1PR1) [3]): significant ubiquitination | EC permeability to FITC-dextran vs control EC (HPAEC [4]): significantly decreased permeability | doses that can disrupt EC monolayer integrity (HPAEC [5]): > 10 µM | ERK phosphorylation (ERK): increased MLC and ERK phosphorylation | activation of β-arrestin (blue/green emission ratio) (β-arrestin): strongly activated | % Inhibition of Maximal TER Response (of Agonist-Only Control), PTX (HPAEC [6]; 2-h preincubation 100 ng/ml PTX): 98.35 (±0.25) % | % Inhibition of Maximal TER Response (of Agonist-Only Control), MβCD (HPAEC [6]; 2-h preincubation 2 mM MβCD): 81.5 (±8.0) % | % Inhibition of Maximal TER Response (of Agonist-Only Control), Gen (HPAEC [6]; 30-min preincubation 200 μM genistein): 42.4 (±13.9) % | maximal TER change (HPAEC [7]): somewhat barrier-disruptive | S1PR1 expression level compared to control (S1P receptor 1 (S1PR1) [8]): 38.1%
